Reference: patent US10457662B2, “Substituted amides for treating and preventing cancer” (The Regents of the University of Michigan, priority 2015, dated 2019)
Like-named read-outs stand apart in the source and are kept apart here.

Key:
MiaPaCa-2 [1] = assay: MTT assay, MiaPaCa-2
Description: Cells were treated with QN523 for 1, 4, 8, 24, 48, 72 h and left in culture in fresh media. MTT assay was performed 72 h after initiation of treatment. Data points represent Mean±SD from three independent experiments.
(§1) Experiments conducted during the course of developing embodiments for the present invention involved performance of a phenotypic screen of a library of 20,000 small-molecules representing five million compounds. […] Subsequently, a lead optimization campaign was performed to synthesize a series of close analogs. Initially, the 50 analogs were tested in three pancreatic cancer cell lines using MTT assay (Table 1).
(§2) For in vitro studies, compounds were dissolved in DMSO at 10 mM as stock solutions and stored at −20° C. For in vivo studies, QN523 was dissolved in a vehicle containing 5% DMSO, 35% propylene glycol and 60% saline, and administered at 100 uL through intraperitoneal injections.

Panc-1 = assay: MTT assay, Panc-1; type: cell-based; details: Homo sapiens
Description: as §1, §2

BxPC-3 = assay: MTT assay, BxPC-3; type: cell-based; details: Homo sapiens
Description: as §1, §2

HepG2 = assay: MTT assay, HepG2; type: cell-based; details: Homo sapiens, HCC cell line
Description: (§3) In order to understand its potential selectivity for different types of cancer and choose the best model for further characterization, QN523 was tested in a panel of 12 cancer cell lines with various genetic and pathological backgrounds (Table 2). […] Because of remarkable potency of QN-523 in pancreatic cancer in-depth preclinical studies in this disease model were performed.

Hep3B = assay: MTT assay, Hep3B; type: cell-based; details: Homo sapiens, HCC cell line
Description: as §3

SNU398 = assay: MTT assay, SNU398; type: cell-based; details: Homo sapiens, SNU-398, HCC cell line
Description: as §3

SNU387 = assay: MTT assay, SNU387; type: cell-based; details: Homo sapiens, SNU-387, HCC cell line
Description: as §3

SNU449 = assay: MTT assay, SNU449; type: cell-based; details: Homo sapiens, SNU-449, HCC cell line
Description: as §3

SNU475 = assay: MTT assay, SNU475; type: cell-based; details: Homo sapiens, SNU-475, HCC cell line
Description: as §3

Ovcar 8 = assay: MTT assay, Ovcar 8; type: cell-based; details: Homo sapiens
Description: as §3

Jurkat = assay: MTT assay, Jurkat; type: cell-based; details: Homo sapiens, leukemia cell line
Description: as §3

HCT116 p53+/+ = assay: MTT assay, HCT116 p53+/+; type: cell-based; details: Homo sapiens, HCT-116, MTT assay; colorectal cancer cell line
Description: as §3

[2] = system: panel of 12 cancer cell lines; assay: MTT assay, panel of 12 cancer cell lines; type: cell-based; details: range over the panel; read-out: IC50 values across all 12 cell lines
Description: as §3

[3] = system: three pancreatic cancer cell lines; assay: MTT assay, three pancreatic cancer cell lines; type: cell-based; details: read-out: Mark: IC50 lower than 1 μM in at least one cell line, Table 1
PDAC cell lines = assay: Colony formation assay, three pancreatic cancer cell lines; type: cell-based; details: 1 μM; all three cell lines; 24 h treatment
Text: (§4) A) QN523 inhibits colony formation in PDAC cell lines. […] Data points represent Mean±SD from three independent experiments.
(§5) The cytotoxicity of QN523 was further evaluated in three pancreatic cancer cell lines using colony formation assay. Using numbers and sizes of colonies as the experimental readout, this long-term assay estimates both anti-proliferative and cytotoxic effect.

MiaPaCa-2 [4] = assay: Colony formation assay, MiaPaCa-2; type: cell-based; details: 0.1 μM; 24 h treatment
Text: as §4, §5

MiaPaCa-2 cells [5] = assay: Ingenuity Pathway Analysis (IPA) of Bru-seq gene lists; details: 1 μM, 24 h
Text: Top 20 canonical pathways regulated by QN523. Histogram represents percentage of genes regulated in the pathway; numbers on the histogram are total numbers of genes in the specific pathway. […] Orange line represents statistical significance in regulation of the indicated pathway.

MiaPaCa-2 cells [6] = assay: DAVID analysis of Bru-seq gene lists; details: genes changed at least 2 fold
Description: Histogram represents statistical significance in regulation of the indicated theme.
The lists were also analyzed by Database for Annotation, Visualization and Integrated Discovery (DAVID), which identify enriched biological themes with particular focus on gene ontology terms, as well as functional-related gene groups (see, e.g., Huang da W, Sherman B T, Lempicki R A (2009) Nature protocols 4(1): 44-57; Huang da W, Sherman B T, Lempicki R A (2009) Nucleic acids research 37(1): 1-13). […] In addition, induction of apoptosis and disruption of cell cycle might be important cellular events contributing to cytotoxicity of QN523.
Top functional terms identified by DAVID are reported.

GRP78, CHOP, ATF3, GDF15 = assay: Western blotting of stress responsive proteins in MiaPaCa-2; type: cell-based; details: 72 h, western blotting
Description: FIG. 11: QN523 induces protein expression of stress markers dose-dependently.
This example describes the validation of biomarkers GDF15, ATF3, DDIT3, HSPA5, WIPI1, GABARAPL1 and MAP1LC3B in pancreatic cancer cell lines. To validate the findings from bioinformatics analysis basing on Bru-seq experiments, the proposed biomarkers were further tested in pancreatic cancer cell lines. […] However, the potency of Sulindac is much lower than that of QN523, with IC50 of 300 μM in MiaPaCa-2.
(§6) In addition, primary antibodies for LC3B, survivin, cyclin D1, Stat3 and phosphorylated Stat3 (Y705) are from Cell Signaling Technology.

[7] = system: WIPI1, GABARAPL1 and LC3B; assay: Western blotting of autophagy related proteins in MiaPaCa-2; type: cell-based
Description: FIG. 12: QN523 induces protein expression of autophagy markers dose-dependently.
Significant induction of the protein was detected at concentrations as low as 0.25 μM.
as §6

`O=C(Nc1cccc2cccnc12)c1cnccn1` [QN523, Pyrazine-2-carboxylic acid quinolin-8-ylamide] gave an IC50 (MiaPaCa-2 [1]; Homo sapiens, MIA PaCa-2, read-out: IC50 Mia PaCa-2, MTT assay, PDAC cell line) of 110 nM, an IC50 (MiaPaCa-2 [1]; Homo sapiens, MIA PaCa-2, read-out: IC50 Values MiaPaCa-2, MTT assay, Mean ± SD, three independent experiments) of 110 ± 30 nM and an IC50 (MiaPaCa-2 [1]; read-out: IC50 Mia PaCa-2, MTT assay, PDAC cell line) of ~100 nM. For the same compound, the “cytotoxicity versus treatment time” value (MiaPaCa-2 [1]; treated 1, 4, 8, 24, 48, 72 h, washed, MTT at 72 h) was “time dependent cytotoxicity effect”, the IC50 (Panc-1; PANC-1, read-out: IC50 Panc-1) was 500 nM and the IC50 (Panc-1; PANC-1, read-out: IC50 Values Panc-1) was 500 ± 70 nM. The IC50 (BxPC-3; BXPC-3, read-out: IC50 BxPC-3) was 3300 nM, the IC50 (BxPC-3; BXPC-3, read-out: IC50 Values BxPC-3) was 3300 ± 260 nM and the IC50 (HepG2) was 500 nM. The IC50 (Hep3B) was 210 nM, the IC50 (SNU398) was 1900 nM and the IC50 (SNU387) was 5730 nM. The IC50 (SNU449) was 400 nM, the IC50 (SNU475) was 2670 nM and the IC50 (Ovcar 8) was 300 nM. It also gave an IC50 (Jurkat) of ~100 nM, an IC50 (HCT116 p53+/+) of ~100 nM and an IC50 [2] of 100 to 5700 nM. The IC50 [3] was < 1000 nM, the “inhibition of colony formation” value (PDAC cell lines) was “Complete inhibition of colony formation” and the “suppression of MiaPaCa-2 colonies” value (MiaPaCa-2 [4]) was “complete suppression of MiaPaCa-2 colonies”. The “genes up-regulated in unfolded protein response, ER stress pathway and circadian rhythm signaling” value (MiaPaCa-2 cells [5]) was “about 25%”, the biological themes downregulated (MiaPaCa-2 cells [6]) was “chromosomal proteins and cell cycle genes” and the biological themes upregulated (MiaPaCa-2 cells [6]) was “Apoptosis, (bZIP) transcription factors, ER related genes and stress responses”. For the same compound, the “protein levels of stress responsive markers HSPA5, DDIT3, ATF3 and GDF15” value (GRP78, CHOP, ATF3, GDF15) was “dose dependent upregulation”, the “lowest concentration with significant induction of WIPI1 protein” value ([7]; 72 h) was 0.25 µM and the “autophagy-related markers WIPI1, GABARAPL1 and LC3B” value ([7]; 72 h treatment, western blotting) was “Accumulation”.
